Reference: patent publication US8541590B2, “Proteasome inhibitors and processes for their preparation, purification and use” (Cephalon, Inc., priority 2009, dated 2013)
Marks after values point to notes of the source that are not given here. One block for each compound: values may come before it.

Tests used:
[1] = Storage stability of boronic ester of Formula X, bulk solid state drug substance (Example 9); type: physicochemical
Method: Bulk solid state drug substance was put in polyethylene (PE) double bag in high-density polyethylene (HDPE) containers and the containers were stored under three conditions: (a) 4° C., (b) 25° C./60% relative humidity (RH), and (c) 40° C./75% RH.
6-(2S,3R)—N-[(1R)-1-(1,3,6,2-dioxazaborocan-2-yl)-3-methylbutyl}-3-hydroxy-2-{(6-phenylpyridin-2-yl)formamido]butanamide converts to [(1R)-1-[[(2S,3R)-3-Hydroxy-2-[[(6-phenylpyridin-2-yl)carbonyl]amino]-1-oxobutyl]amino]-3-methylbutyl]boronic acid (i.e., Compound 1) as soon as it is in the presence of an aqueous phase. Therefore, HPLC analysis of purity was of the [(1R)-1-[[(2S,3R)-3-Hydroxy-2-[[(6-phenylpyridin-2-yl)carbonyl]amino]-1-oxobutyl]amino]-3-methylbutyl]boronic acid hydrolysis product. Stability was tested at time zero (T0), and after storage for one month (1M), six months (6M) and (except for the 40° C./75% RH conditions) one year (12M).

[2] = Comparative storage stability of Compound 1, Batches A, B, C (Example 9A); type: physicochemical
Method: Three (3) separate batches of Compound 1 were tested for storage stability. The batches are identified as Batch A, Batch B, and Batch C below. Bulk solid state drug substance was put in polyethylene (PE) double bag in high-density polyethylene (HDPE) containers and the containers were stored under the indicated conditions.

[3] = Occupational exposure limit (OEL)
[4] = Comparative bioavailability of bortezomib and boronic ester of Formula XI in rat, Example 10 (i.v.; p.o. in saline); type: in vivo, male Sprague Dawley rats; details: male, Sprague Dawley, iv, bortezomib in plasma, 0.8 mg/kg, mean ± SEM
Method: Three adult male Sprague Dawley rats were used in each treatment group. The rats were fasted overnight prior to oral dose administration. Intravenous administration was via the lateral tail vein and oral doses were administered by gavage. The compound was administered iv in a vehicle of 3% DMSO:30% Solutol:67% phosphate buffered saline. Oral dosing was in phosphate buffered saline.
For blood collection, each rat (unanesthetized) was placed in a clear Plexiglas® restraining tube, and blood samples (approximately 0.25 mL) were drawn from a lateral tail vein into heparinized collection tubes at predetermined sampling times (0.083, 0.25, 0.5, 1, 2, 4, and 6 hours post dose). No pre-dose samples were obtained. The exception to this procedure was the last sampling time in which the animals were sacrificed by decapitation and trunk blood was obtained rather than blood via a tail vein. The blood samples were placed on wet ice until centrifuged to separate plasma. The plasma fraction was transferred into clean dry tubes, frozen on dry ice and stored at approximately −20° C. pending analysis.
Plasma was prepared for high performance liquid chromatography (HPLC)/mass spectrometric analysis according to standard protocol following protein precipitation with acetonitrile containing an internal standard. The plasma samples were then analyzed for both bortezomib and alprenolol (internal standard) via HPLC coupled with tandem mass spectrometry.
The plasma concentration data for all rats were entered into Excel spreadsheets in preparation for pharmacokinetic analysis. Pharmacokinetic parameters for bortezomib were estimated for each rat by non-compartmental analysis (Gibaldi M, Perrier D. Pharmacokinetics, 2nd edition, Marcel Dekker, New York, Chapter 11, 1982) of the plasma concentration versus time data using WinNonlin software (Professional Version 4.1, Pharsight Corporation, Palo Alto, Calif., 1997).
The maximum plasma concentration (Cmax) was the highest observed plasma concentration after an oral dose; tmax was the corresponding time when Cmax was observed. The terminal rate constant for elimination from plasma (β) was estimated by linear regression of the terminal portion of the semi-logarithmic plasma concentration versus time curve. The apparent terminal half-life (t1/2) was calculated as 0.693 divided by β. The area under the plasma concentration versus time curve from time zero to the time of the last measurable concentration (AUC0-t) after a single dose was determined by the linear trapezoidal rule. The area from zero to infinity (AUC0-∞) was calculated as the sum of AUC0-t and the area extrapolated from the last measurable concentration to infinity (Clast/β). Concentrations pre dose were all assumed to be zero for the purpose of calculation of the AUC. Oral bioavailability was determined by dividing the dose normalized oral AUC0-∞ by the AUC0-∞ from iv dosing and multiplying by 100 to express the ratio as a percent.

[5] = Batch B, 5° C./ambient RH, 1 Month
[6] = Batch B, 5° C./ambient RH, 3 Month
[7] = Batch B, 5° C./ambient RH, 6 Month
[8] = Batch C, 5° C./ambient RH, 1 Month
[9] = Batch C, 5° C./ambient RH, 3 Month
[10] = Batch C, 5° C./ambient RH, 6 Month
[11] = Batch C, 5° C./ambient RH, 12 Month

Appearance ([1]; 4° C., 1 M): White to off- | Appearance ([1]; 4° C., 6 M): White to off- | Appearance ([1]; 4° C., 12 M): White to off- | Chemical purity (%) ([1]; 4° C./ambient RH, 1 M): 99.8% | Impurity by HPLC (%) RRT = 0.49 ([1]; 4° C./ambient RH, 1 M): 0.06% | Impurity by HPLC (%) RRT = 1.18 ([1]; 4° C./ambient RH, 1 M): 0.17% | Chemical purity (%) ([1]; 4° C./ambient RH, 6 M): 99.9% | Chemical purity (%) ([1]; 4° C./ambient RH, 12 M): 99.9% | Impurity by HPLC (%) RRT = 1.18 ([1]; 4° C./ambient RH, 12 M): 0.07% | Appearance ([1]; 25° C./60% RH, 1 M): White to off- | Chemical purity (%) ([1]; 25° C./60% RH, 1 M): 99.6% | Impurity by HPLC (%) RRT = 0.49 ([1]; 25° C./60% RH, 1 M): 0.09% | Impurity by HPLC (%) RRT = 1.18 ([1]; 25° C./60% RH, 1 M): 0.32% | Appearance ([1]; 25° C./60% RH, 6 M): White to off- | Chemical purity (%) ([1]; 25° C./60% RH, 6 M): 99.8% | Impurity by HPLC (%) RRT = 0.49 ([1]; 25° C./60% RH, 6 M): 0.08% | Impurity by HPLC (%) RRT = 1.18 ([1]; 25° C./60% RH, 6 M): 0.06% | Appearance ([1]; 25° C./60% RH, 12 M): White to off- | Chemical purity (%) ([1]; 25° C./60% RH, 12 M): 99.9% | Impurity by HPLC (%) RRT = 0.49 ([1]; 25° C./60% RH, 12 M): 0.07% | Impurity by HPLC (%) RRT = 1.18 ([1]; 25° C./60% RH, 12 M): 0.08% | Appearance ([1]; 40° C./75% RH, 1 M): White to off- | Chemical purity (%) ([1]; 40° C./75% RH, 1 M): 99.7% | Impurity by HPLC (%) RRT = 0.49 ([1]; 40° C./75% RH, 1 M): 0.10% | Impurity by HPLC (%) RRT = 1.18 ([1]; 40° C./75% RH, 1 M): 0.18% | Appearance ([1]; 40° C./75% RH, 6 M): White to off- | Chemical purity (%) ([1]; 40° C./75% RH, 6 M): 99.8% | Impurity by HPLC (%) RRT = 0.49 ([1]; 40° C./75% RH, 6 M): 0.10% | Impurity by HPLC (%) RRT = 1.18 ([1]; 40° C./75% RH, 6 M): 0.11% | Appearance ([1]; T0): White to off- | Impurity by HPLC (%) RRT = 1.18 ([1]; T0): 0.50% | Chemical purity (%) ([1]; T0, HPLC of Compound 1 hydrolysis product): 99.5%
Compound: 6-(2S,3R)—N-[(1R)-1-(1,3,6,2-dioxazaborocan-2-yl)-3-methylbutyl}-3-hydroxy-2-{(6-phenylpyridin-2-yl)formamido]butanamide [boronic ester of Formula X]

HPLC Purity (%) ([2]; Batch A, 4° C./ambient RH, 3 M): 94.5% | Appearance ([2]; Batch A, 4° C./ambient RH, 3 Months): White to off- | HPLC Purity (%) ([2]; Batch A, 4° C./ambient RH, 6 M): 94.1% | Appearance ([2]; Batch A, 4° C./ambient RH, 6 Months): White to off- | HPLC Purity (%) ([2]; Batch A, 25° C./60% RH, 3 M): 94.4% | Appearance ([2]; Batch A, 25° C./60% RH, 3 Months): White to off- | HPLC Purity (%) ([2]; Batch A, 25° C./60% RH, 6 M): 94.1% | Appearance ([2]; Batch A, 25° C./60% RH, 6 Months): White to off- | HPLC Purity (%) ([2]; Batch A, 40° C./75% RH, 3 M): 93.2% | Appearance ([2]; Batch A, 40° C./75% RH, 3 Months): White to off- | HPLC Purity (%) ([2]; Batch A, 40° C./75% RH, 6 M): 88.7% | Appearance ([2]; Batch A, 40° C./75% RH, 6 Months): White to off- | Appearance ([2]; Batch A, T0): White to off- | HPLC Purity (%) ([2]; Batch A, T0 (estimated)): 95.3* % | Appearance [2, 5]: White powder | Assay by HPLC (anhydrous) (%) [2, 5]: 97.1% | Assay by HPLC (as-is) (%) [2, 5]: 90.6% | Total Impurities (%) [2, 5]: 3.0% | Water Content (%) [2, 5]: 6.0% | Appearance [2, 6]: White | Assay by HPLC (anhydrous) (%) [2, 6]: 94.0% | Assay by HPLC (as-is) (%) [2, 6]: 87.5% | Total Impurities (%) [2, 6]: 5.9% | Water Content (%) [2, 6]: 6.1% | Appearance [2, 7]: White powder | Assay by HPLC (anhydrous) (%) [2, 7]: 93.5% | Assay by HPLC (as-is) (%) [2, 7]: 85.1% | Total Impurities (%) [2, 7]: 7.3% | Water Content (%) [2, 7]: 8.2% | Appearance ([2]; Batch B, 5° C./ambient RH, T0): White | Assay by HPLC (anhydrous) (%) ([2]; Batch B, 5° C./ambient RH, T0): 101.7% | Assay by HPLC (as-is) (%) ([2]; Batch B, 5° C./ambient RH, T0): 94.4% | Total Impurities (%) ([2]; Batch B, 5° C./ambient RH, T0): 0.6% | Water Content (%) ([2]; Batch B, 5° C./ambient RH, T0): 6.5% | Appearance [2, 8]: White to yellow | Assay by HPLC (anhydrous) (%) [2, 8]: 97.0% | Assay by HPLC (as-is) (%) [2, 8]: 91.4% | HPLC Purity (%) [2, 8]: 97.2% | Water Content (%) [2, 8]: 4.59% | Appearance [2, 9]: White to yellow | Assay by HPLC (anhydrous) (%) [2, 9]: 102.4% | Assay by HPLC (as-is) (%) [2, 9]: 94.6% | HPLC Purity (%) [2, 9]: 96.2% | Water Content (%) [2, 9]: 6.48% | Appearance [2, 10]: Off-white | Assay by HPLC (anhydrous) (%) [2, 10]: 99.9% | Assay by HPLC (as-is) (%) [2, 10]: 91.0% | HPLC Purity (%) [2, 10]: 96.3% | Water Content (%) [2, 10]: 7.74% | Appearance [2, 11]: Off-white | Assay by HPLC (anhydrous) (%) [2, 11]: 95.9% | Assay by HPLC (as-is) (%) [2, 11]: 87.0% | HPLC Purity (%) [2, 11]: 96.2% | Water Content (%) [2, 11]: 8.16% | Appearance ([2]; Batch C, 5° C./ambient RH, T0): Yellowish | Assay by HPLC (anhydrous) (%) ([2]; Batch C, 5° C./ambient RH, T0): 98.1% | Assay by HPLC (as-is) (%) ([2]; Batch C, 5° C./ambient RH, T0): 92.9% | HPLC Purity (%) ([2]; Batch C, 5° C./ambient RH, T0): 98.2% | Water Content (%) ([2]; Batch C, 5° C./ambient RH, T0): 4.16% | increase of total impurities ([2]; within six months, refrigerated conditions): more than 10 fold | occupational exposure limit (OEL) [3]: 0.3 μg/m^3
Compound: CC(C)C[C@H](NC(=O)[C@@H](NC(=O)c1cccc(-c2ccccc2)n1)[C@@H](C)O)B(O)O [Compound 1, [(1R)-1-[[(2S,3R)-3-hydroxy-2-[6-phenyl-pyridine-2-carbonyl)amino]-1-oxobutyl]amino]-3-methylbutylboronic acid]

AUC(0-inf) ([4]; n = 3): 472 ± 127 ng·h/mL | AUC(0-t) ([4]; n = 3): 459 ± 127 ng·h/mL | Vd ([4]; n = 3): 2.4 ± 0.8 L/kg | clearance ([4]; n = 3): 34 ± 11 mL/min/kg | half-life ([4]; n = 3, read-out: t1/2, h (converted)): 48 ± 6 min
Compound: CC(C)C[C@H](NC(=O)[C@H](Cc1ccccc1)NC(=O)c1cnccn1)B(O)O [bortezomib, [(1R)-3-methyl-1-({(2S)-3-phenyl-2-[(pyrazin-2-ylcarbonyl)amino]propanoyl}amino)butyl]boronic acid]
